Measured values from paper PMC5991783, “Discovery and Optimization of Indolyl-Containing 4-Hydroxy-2-Pyridone Type II DNA Topoisomerase Inhibitors Active against Multidrug Resistant Gram-negative Bacteria” (Journal of Medicinal Chemistry, 2018).
Converted amounts (≈) assume the structure as drawn. Where a name gives a salt, the structure may show the parent alone. Read-outs that look alike come from different tables or passages of the source. Marks after values point to notes of the source that are not given here.

Key:
[1] = test system: panel of 12 A. baumannii isolates; assay: Susceptibility testing, 12 A. baumannii isolates; assay type: cell-based, Acinetobacter baumannii
[2] = molecular target: human topoisomerase II (Homo sapiens, UniProt P11388); assay: Human topoisomerase II decatenation assay; assay type: biochemical; details: Supplemental Table 1; read-out: Human Topo II IC50
Sequence of human topoisomerase II (P11388 whole entry): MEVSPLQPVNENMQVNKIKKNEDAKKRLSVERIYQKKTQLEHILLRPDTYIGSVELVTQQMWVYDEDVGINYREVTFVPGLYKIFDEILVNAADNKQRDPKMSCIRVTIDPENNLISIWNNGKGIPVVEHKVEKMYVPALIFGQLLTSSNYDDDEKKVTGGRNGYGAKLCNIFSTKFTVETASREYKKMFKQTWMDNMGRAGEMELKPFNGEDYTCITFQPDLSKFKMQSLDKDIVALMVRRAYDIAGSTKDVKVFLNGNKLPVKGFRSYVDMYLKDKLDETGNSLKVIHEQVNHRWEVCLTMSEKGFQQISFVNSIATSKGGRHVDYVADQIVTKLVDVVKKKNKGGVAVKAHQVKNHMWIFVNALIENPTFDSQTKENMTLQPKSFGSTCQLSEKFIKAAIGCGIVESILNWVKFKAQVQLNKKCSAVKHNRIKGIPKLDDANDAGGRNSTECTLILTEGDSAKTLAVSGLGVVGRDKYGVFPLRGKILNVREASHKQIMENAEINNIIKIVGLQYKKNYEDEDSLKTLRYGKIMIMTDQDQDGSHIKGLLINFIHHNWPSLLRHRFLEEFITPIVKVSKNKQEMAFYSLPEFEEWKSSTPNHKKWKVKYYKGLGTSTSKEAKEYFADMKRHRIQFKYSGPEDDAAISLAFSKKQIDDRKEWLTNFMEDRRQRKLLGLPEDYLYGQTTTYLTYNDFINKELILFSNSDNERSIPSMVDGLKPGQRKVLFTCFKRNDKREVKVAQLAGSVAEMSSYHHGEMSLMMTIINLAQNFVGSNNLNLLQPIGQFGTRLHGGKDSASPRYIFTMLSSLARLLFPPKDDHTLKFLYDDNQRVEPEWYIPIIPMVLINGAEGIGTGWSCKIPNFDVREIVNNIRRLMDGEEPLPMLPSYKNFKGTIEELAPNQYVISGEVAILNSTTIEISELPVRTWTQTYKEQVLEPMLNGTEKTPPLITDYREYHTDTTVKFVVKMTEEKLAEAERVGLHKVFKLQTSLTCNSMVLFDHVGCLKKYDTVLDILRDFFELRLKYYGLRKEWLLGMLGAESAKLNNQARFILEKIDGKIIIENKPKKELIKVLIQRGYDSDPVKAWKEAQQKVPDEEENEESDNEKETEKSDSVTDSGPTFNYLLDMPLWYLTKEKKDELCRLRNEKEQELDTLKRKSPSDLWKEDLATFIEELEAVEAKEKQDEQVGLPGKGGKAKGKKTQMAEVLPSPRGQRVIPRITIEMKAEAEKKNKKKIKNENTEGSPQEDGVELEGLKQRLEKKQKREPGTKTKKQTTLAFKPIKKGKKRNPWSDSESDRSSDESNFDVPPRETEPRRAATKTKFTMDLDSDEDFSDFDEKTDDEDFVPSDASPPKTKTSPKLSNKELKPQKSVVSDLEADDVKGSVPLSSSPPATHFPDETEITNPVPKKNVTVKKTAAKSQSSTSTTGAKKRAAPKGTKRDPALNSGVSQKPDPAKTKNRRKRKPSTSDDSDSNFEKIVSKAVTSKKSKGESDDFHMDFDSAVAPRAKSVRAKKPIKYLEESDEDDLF

[3] = Pharmacokinetics in CD-1 mice; details: CD-1, mouse, plasma, iv, 10 mg/kg
[4] = molecular target: E. coli DNA gyrase (Escherichia coli, UniProt P0AES4+P0AES6); assay: biochemical
[5] = test system: E. coli^WT (ATCC 25922); assay: Mouse septicemia model; assay type: in vivo, CD-1 mice; details: 96 h; for responders at 20 mg/kg: Mus musculus, iv, read-out: survival
[6] = test system: A. baumannii MMX2240; assay: MIC, fluoroquinolone resistant A. baumannii; assay type: cell-based, Acinetobacter baumannii
[7] = test system: Acinetobacter baumannii ATCC BAA-747; assay: MIC, wild-type A. baumannii; assay type: cell-based; details: A. baumannii ATCC BAA-747
[8] = test system: Klebsiella pneumoniae ATCC 35657; assay: MIC, wild-type K. pneumoniae; assay type: cell-based; details: K. pneumoniae ATCC 35657
[9] = test system: E. coli SKM18; assay: microbe, parasite or virus in culture; assay type: cell-based, Escherichia coli; details: for MIC E. coli^R1: E. coli SKM18
[10] = test system: E. coli ATCC 25922; assay: MIC, wild-type E. coli ATCC 25922; assay type: cell-based, Escherichia coli; details: for increase in MIC values against the wild-type E. coli strain compared to the permeable strain: E. coli^WT vs E. coli^P; for MIC: Escherichia coli
[11] = in vivo; details: CD-1, mouse, iv, 3 mg/kg
[12] = molecular target: E. coli DNA gyrase^SD-LY (GyrA S83L, D87Y) (Escherichia coli, UniProt P0AES4+P0AES6, D87Y/S83L); assay type: biochemical; details: IC50 ratio
[13] = test system: E. coli 1609; assay: MIC, wild-type E. coli 1609; assay type: cell-based; details: Escherichia coli, read-out: MIC E. coli^WT2
[14] = test system: E. coli SKM11; assay type: cell-based, Escherichia coli
[15] = test system: panel of 12 E. coli isolates; assay: Susceptibility testing, 12 E. coli isolates; assay type: cell-based, Escherichia coli
[16] = test system: E. coli^WT (ATCC 25922); set-up: method as in PMID 29032026; details: cited from earlier work
[17] = test system: panel of 12 E. coli isolates; set-up: method as in PMID 29032026; details: abbreviated panel of E. coli strains; cited from earlier work
[18] = test system: A. baumannii^WT; assay: Time-kill kinetics, A. baumannii
[19] = test system: E. coli^WT; assay: Time-kill kinetics, E. coli
[20] = ATCC25922, read-out: MIC E. coli^WT, E. coli ATCC 25922
[21] = E. coli enzymatic activity, DNA gyrase IC50

## Cn1c(CNC2(C)CCC2)cc2cc3c(cc21)OCCc1c-3[nH]c(=O)c(C(=O)O)c1O [Compound 6q, 4-Hydroxy-9-methyl-10-(((1-methylcyclobutyl)amino)methyl)-2-oxo-2,5,6,9-tetrahydro-1H-pyrido[2′,3′:4,5]oxepino[3,2-f]indole-3-carboxylic Acid Hydrochloride]
[1]; Acinetobacter baumannii, read-out: A. baumannii MIC range
  MIC: 0.06 to 16 µg/mL
[2]
  IC50: > 100 µM
[3]; pH 8
  AUC(0-t) at 24 h: 4420 ng·h/mL
  clearance: 37 mL/min/kg
[4]; E. coli DNA gyrase IC50
  IC50: 0.73 µM

## CN(C)Cc1cc2cc3c(cc2n1C)CCCc1c-3[nH]c(=O)c(C(=O)O)c1O [Compound 6r, 10-((Dimethylamino)methyl)-4-hydroxy-9-methyl-2-oxo-1,2,5,6,7,9-hexahydropyrido[3′,2′:6,7]cyclohepta[1,2-f]indole-3-carboxylic Acid Hydrochloride]
[2]
  IC50: > 100 µM
[3]; pH 8
  AUC(0-t) at 24 h: 3520 ng·h/mL
  clearance: 47 mL/min/kg
[4]; E. coli DNA gyrase IC50
  IC50: 0.41 µM
[5]
  responders at 20 mg/kg: 100%

## 10-((sec-Butylamino)methyl)-4-hydroxy-9-methyl-2-oxo-1,2,5,6,7,9-hexahydropyrido[3′,2′:6,7]cyclohepta[1,2-f]indole-3-carboxylic Acid Hydrochloride [Compound 6n]
[6]
  MIC A. bau^R: 0.50 µg/mL
[7]
  MIC A. bau^WT: 0.78 µg/mL
[8]
  MIC K. pneu^WT: 0.50 µg/mL
[9]
  MIC E. coli^R1: 0.78 µg/mL
[10]; E. coli ATCC 25922
  MIC E. coli^WT: 0.78 µg/mL

## COc1c(N2C[C@@H]3CCCN[C@@H]3C2)c(F)cc2c(=O)c(C(=O)O)cn(C3CC3)c12 [moxifloxacin, reference compound]
[11]
  AUC(0-t) at 24 h: 640 ng·h/mL
[5]; neutropenic mice, E. coli^WT 100 × LD50, 3 mg/kg at 1 and 5 h postinfection (b.i.d.)
  survival: 100 ^n %

## CCc1c(-c2ccc3c(ccn3C)c2)[nH]c(=O)c(C(=O)O)c1O [Compound 2a, 5-Ethyl-4-hydroxy-6-(1-methyl-1H-indol-5-yl)-2-oxo-1,2-dihydropyridine-3-carboxylic Acid]
[10]
  increase in MIC values against the wild-type E. coli strain compared to the permeable strain: greater than 25 fold

## CO/N=C(\C(=O)N[C@@H]1C(=O)N2C(C(=O)[O-])=C(C[N+]3(C)CCCC3)CS[C@H]12)c1csc(N)n1 [cefepime, reference compound]
[6]
  MIC A. bau^R: 0.78 µg/mL (≈ 1.62 µM)
[7]
  MIC A. bau^WT: 0.78 µg/mL (≈ 1.62 µM)
[8]
  MIC K. pneu^WT: 0.02 µg/mL (≈ 0.0416 µM)
[9]
  MIC E. coli^R1: 0.05 µg/mL (≈ 0.104 µM)
[10]; E. coli ATCC 25922
  MIC E. coli^WT: 0.05 µg/mL (≈ 0.104 µM)

## Cn1c(CN2CCCC2)cc2cc3c(cc21)OCCc1c-3[nH]c(=O)c(C(=O)O)c1O [Compound 6w, 4-Hydroxy-9-methyl-2-oxo-10-(pyrrolidin-1-ylmethyl)-2,5,6,9-tetrahydro-1H-pyrido[2′,3′:4,5]oxepino[3,2-f]indole-3-carboxylic Acid Hydrochloride]
[2]
  IC50: > 100 µM
[4]; E. coli DNA gyrase IC50
  IC50: 0.28 µM

## O=C(O)c1cn(C2CC2)c2cc(N3CCNCC3)c(F)cc2c1=O [ciprofloxacin]
[12]
  reduction in activity against DNA gyrase^SD-LY compared to DNA gyrase^WT: greater than 13 fold
[13]
  MIC: 0.024 µg/mL (≈ 0.0724 µM)
[9]
  MIC E. coli^R1: > 250 µg/mL
[9]; additional Topo IV mutations, vs E. coli^R3
  increase in MIC against E. coli^R1: ~250 fold
[10]; ATCC25922, E. coli ATCC 25922, read-out: MIC E. coli^WT
  MIC: 0.012 µg/mL (≈ 0.0362 µM)
[14]
  increase in MIC against E. coli^R3: 32 fold

## Cn1c(CN2CCCC2)cc2cc3c(cc21)CCCc1c-3[nH]c(=O)c(C(=O)O)c1O [Compound 6v, 4-Hydroxy-9-methyl-2-oxo-10-(pyrrolidin-1-ylmethyl)-1,2,5,6,7,9-hexahydropyrido[3′,2′:6,7]cyclohepta[1,2-f]indole-3-carboxylic Acid Hydrochloride]
[1]; Acinetobacter baumannii, read-out: A. baumannii MIC90, 12 strains, Mueller Hinton II broth
  MIC90: 8 to 16 µg/mL
[2]
  IC50: > 100 µM
[3]; pH 8
  AUC(0-t) at 24 h: 4050 ng·h/mL
  clearance: 41 mL/min/kg
[4]; E. coli DNA gyrase IC50
  IC50: 0.21 µM
[5]
  responders at 20 mg/kg: 100%
[15]; 12 strains, Mueller Hinton II broth
  E. coli MIC90: 1 µg/mL
[15]; Escherichia coli, read-out: E. coli MIC90, 12 strains, Mueller Hinton II broth
  MIC90: 0.5 to 1 µg/mL

## CCNCc1cc2cc3c(cc2n1C)NCCc1c-3[nH]c(=O)c(C(=O)O)c1O [Compound 6g]
[10]; [20]
  MIC: 7.8 to 31.3 µg/mL (≈ 20.4 to 81.8 µM)

## CCc1c(-c2ccc3c(c2)cc(C)n3C)[nH]c(=O)c(C(=O)O)c1O [Compound 2b, 6-(1,2-Dimethyl-1H-indol-5-yl)-5-ethyl-4-hydroxy-2-oxo-1,2-dihydropyridine-3-carboxylic Acid]
[10]
  increase in MIC values against the wild-type E. coli strain compared to the permeable strain: greater than 25 fold

## CCc1c(-c2ccc(N3C[C@@H]4[C@@H](N)[C@@H]4C3)cc2)[nH]c(=O)c(C(=O)O)c1O [Compound 1b]
[16]
  efficacy in a murine septicemia model: demonstrated efficacy
[17]
  MIC90 E. coli: 8 µg/mL (≈ 22.5 µM)

## Cn1c(CNC2(C)CCC2)cc2cc3c(cc21)CCCc1c-3[nH]c(=O)c(C(=O)O)c1O [Compound 6p, 4-Hydroxy-9-methyl-10-(((1-methylcyclobutyl)amino)methyl)-2-oxo-1,2,5,6,7,9-hexahydropyrido[3′,2′:6,7]cyclohepta[1,2-f]indole-3-carboxylic Acid Hydrochloride]
[3]; pH 4
  AUC(0-t) at 24 h: 4580 ng·h/mL
  clearance: 35 mL/min/kg
[5]
  responders at 20 mg/kg: 0%

## CC(C)NCc1cc2cc3c(cc2n1C)CCCc1c-3[nH]c(=O)c(C(=O)O)c1O [Compound 6i, 4-Hydroxy-10-((isopropylamino)methyl)-9-methyl-2-oxo-1,2,5,6,7,9-hexahydropyrido[3′,2′:6,7]cyclohepta[1,2-f]indole-3-carboxylic Acid Hydrochloride]
[2]
  IC50: > 100 µM
[3]; pH 8
  AUC(0-t) at 24 h: 1810 ng·h/mL
  clearance: 64 mL/min/kg
[4]; E. coli DNA gyrase IC50
  IC50: 2.7 µM

## C[C@H]1COc2c(N3CCN(C)CC3)c(F)cc3c(=O)c(C(=O)O)cn1c23.C[C@H]1COc2c(N3CCN(C)CC3)c(F)cc3c(=O)c(C(=O)O)cn1c23.O [levofloxacin, reference compound]
[1]; 12 strains
  A. baumannii MIC range: 0.06 to 64 µg/mL
[15]; 12 strains
  E. coli MIC range: 0.015 to 32 µg/mL

## CN(C)Cc1cc2cc3c(cc2n1C)OCCc1c-3[nH]c(=O)c(C(=O)O)c1O [Compound 6s, 10-((Dimethylamino)methyl)-4-hydroxy-9-methyl-2-oxo-2,5,6,9-tetrahydro-1H-pyrido[2′,3′:4,5]oxepino[3,2-f]indole-3-carboxylic Acid Hydrochloride]
[2]
  IC50: > 100 µM
[3]; pH 4
  AUC(0-t) at 24 h: 2930 ng·h/mL
  clearance: 53 mL/min/kg
[4]; E. coli DNA gyrase IC50
  IC50: 0.49 µM
[5]
  responders at 20 mg/kg: 100%

## CC(C)NCc1cc2cc3c(cc2n1C)NCCc1c-3[nH]c(=O)c(C(=O)O)c1O [Compound 6l]
[10]; [20]
  MIC: 7.8 to 31.3 µg/mL (≈ 19.7 to 79 µM)

## CNCc1cc2cc3c(cc2n1C)CCc1c-3[nH]c(=O)c(C(=O)O)c1O.Cl [Compound 5a]
[9]; Escherichia coli, SKM18, read-out: MIC E. coli^R1, E. coli SKM18
  MIC: 7.8 µg/mL
[4]; [21]
  IC50: 0.9 µM
[10]; [20]
  MIC: 7.8 µg/mL

## CCc1c(-c2ccc3c(c2)cc(CN2CCC2)n3C)[nH]c(=O)c(C(=O)O)c1O [Compound 2m, 6-(2-(Azetidin-1-ylmethyl)-1-methyl-1H-indol-5-yl)-5-ethyl-4-hydroxy-2-oxo-1,2-dihydropyridine-3-carboxylic Acid Hydrochloride]
[18]; A. baumannii^WT, several concentrations
  mode of bacterial inhibition (time–kill kinetics): concentration-dependent bactericidal activity
[18]; above 2-fold of the MIC, within ∼2 h
  reduction in the number of CFUs: ~2 log10 units
[19]; E. coli^WT, several concentrations
  mode of bacterial inhibition (time–kill kinetics): concentration-dependent bactericidal activity
[19]; concentrations above the MIC, within ∼2 h
  reduction in the number of CFUs: more than 3 log10 units

## CN(C)c1cc(NC(=O)CNC(C)(C)C)c(O)c2c1C[C@H]1C[C@H]3[C@H](N(C)C)C(O)=C(C(N)=O)C(=O)[C@@]3(O)C(O)=C1C2=O [tigecycline, reference compound]
[6]
  MIC A. bau^R: 0.78 µg/mL (≈ 1.33 µM)
[7]
  MIC A. bau^WT: 0.78 µg/mL (≈ 1.33 µM)
[8]
  MIC K. pneu^WT: 0.13 µg/mL (≈ 0.222 µM)
[9]
  MIC E. coli^R1: 0.25 µg/mL (≈ 0.427 µM)
[10]; E. coli ATCC 25922
  MIC E. coli^WT: 0.13 µg/mL (≈ 0.222 µM)

## CCNCc1cc2cc3c(cc2n1C)CCCc1c-3[nH]c(=O)c(C(=O)O)c1O [Compound 6a, 10-((Ethylamino)methyl)-4-hydroxy-9-methyl-2-oxo-1,2,5,6,7,9-hexahydropyrido[3′,2′:6,7]cyclohepta[1,2-f]indole-3-carboxylic Acid Hydrochloride]
[2]
  IC50: > 100 µM
[4]; E. coli DNA gyrase IC50, gyrase^WT
  IC50: 0.56 µM
[4]; [21]
  IC50: 0.1 µM
